Results on two molecules are retold here after patent US20240366589A1, “NHE3-BINDING COMPOUNDS AND METHODS FOR INHIBITING PHOSPHATE TRANSPORT” (Ardelyx, Inc., priority 2013, published 2024).

Experiment [1] addresses T1, human NaP2b (SLC34A2) (Homo sapiens, UniProt O95436).
T1 construct: host or cells: HEK293 cells (ATCC), Lipofectamine 2000, transient
T1 sequence (O95436 1-690): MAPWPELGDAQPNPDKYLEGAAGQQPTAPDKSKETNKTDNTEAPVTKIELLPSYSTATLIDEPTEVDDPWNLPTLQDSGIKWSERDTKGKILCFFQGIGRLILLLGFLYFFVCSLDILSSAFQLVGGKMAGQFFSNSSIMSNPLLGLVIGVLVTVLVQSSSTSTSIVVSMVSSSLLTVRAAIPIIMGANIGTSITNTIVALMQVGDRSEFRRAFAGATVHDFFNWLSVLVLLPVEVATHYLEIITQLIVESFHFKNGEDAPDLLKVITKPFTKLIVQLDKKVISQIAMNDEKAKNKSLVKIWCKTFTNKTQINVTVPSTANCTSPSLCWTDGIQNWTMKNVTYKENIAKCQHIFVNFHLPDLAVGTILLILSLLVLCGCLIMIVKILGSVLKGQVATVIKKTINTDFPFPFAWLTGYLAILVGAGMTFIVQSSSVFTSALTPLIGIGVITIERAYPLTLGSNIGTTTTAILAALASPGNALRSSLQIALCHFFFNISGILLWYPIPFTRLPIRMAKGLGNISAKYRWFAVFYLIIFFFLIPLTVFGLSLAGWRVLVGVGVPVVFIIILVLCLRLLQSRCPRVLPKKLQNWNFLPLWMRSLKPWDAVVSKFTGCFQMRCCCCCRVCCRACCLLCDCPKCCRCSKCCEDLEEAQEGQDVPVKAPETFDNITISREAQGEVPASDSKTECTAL
The experiment can be described thus: Cell-based assay of NaP2b activity (33P uptake, transfected HEK293 cells), human NaP2b isoform a. The following applies: Table E5; HEK293, 33P uptake; dihydrochloride salt. On the procedure: Cell-based assay of NaP2b activity. The rate of phosphate (Pi) uptake into cells was measured using a modification of a literature method (see Mohrmann et al. Am. J Phys. 250(3 pt 1):G323-30, 1986). Briefly, HEK293 cells were transiently transfected with an expression clone encoding either rat or human NaP2b. The next day, transfected cells were treated with a pharmacological agent to minimize endogenous PiT-mediated phosphate transport activity, such that the only remaining sodium-dependent phosphate transport activity is that which was bestowed by introduction of the NaP2b gene. Cells were incubated with radioactive inorganic phosphate in the presence or absence of varying concentrations of test compound. After a short time, cells were washed, harvested, and the amount of hot phosphate taken up in the cells determined by liquid scintillation counting.
HEK293 cells were obtained from the American Type Culture collection and propagated per their instructions. […]
Cells were seeded into 96-well plates at 25,000 cells/well and cultured overnight. […] Cells were lysed by addition of 20 μL 0.1% Tween 80 followed by 100 μL scintillation fluid, and counted using a TopCount (Perkin Elmer). The pIC50 (the negative log of the IC50) values of the test compounds were calculated using GraphPad Prism.

In experiment [2] the test system is adenine-induced uremic rat model. The experiment can be described thus: Adenine-induced uremic rat model. In kind it is in vivo. How it is done: The effects of Cpd 002 (from Table E4, as the dihydrochloride salt) were tested in an adenine-induced uremic rat model. Rats were fed a diet including 0.75% adenine and 1.2% phosphorus during the nephritis induction phase. The basal diet during the treatment phase was normal chow including 0.3% adenine and 0.6% phosphorus for 2 weeks. The rats were pair-fed the first 5 days (groups 1 and 2 to group 3, 4 days apart), and fed ad libitum afterwards. The treatment groups were as follows: vehicle, n=10; Cpd 002, 2 mg/kg/day drug-in-chow, n=10; and Cpd 002, 5 mg/kg/day drug-in-chow, n=12. Weekly measurements were taken for serum markers and kidney function. The study design is illustrated in FIG. 8A.

Experiment [3] concerns absorption of sodium from the intestinal lumen. The experiment can be described thus: Fecal form score (FFS) 16 h after oral dose in rats. The class given is in vivo, rat. The following applies: in words. In a few lines: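 Fecal form was scored at 16 h post-dose on a 1–5 wetness scale (normal pellet to liquid stream), with two independent observations averaged across six rats per group. Animals were 8-week-old Sprague-Dawley rats given test compound or water orally in the late afternoon and kept in metabolic cages.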

[4] abbreviates: early time points, 2 and 5 mg/kg/day drug-in-chow.
[5] abbreviates: week three, highest dose 5 mg/kg/day.

As for `CN1Cc2c(Cl)cc(Cl)cc2[C@H](c2cccc(S(=O)(=O)NCCOCCOCCNC(=O)NCCCCNC(=O)NCCOCCOCCNS(=O)(=O)c3cccc([C@@H]4CN(C)Cc5c(Cl)cc(Cl)cc54)c3)c2)C1` [Cpd 002], the “pIC50 Human Nap2B” value in experiment [1] was less than 4.5. In addition, in experiment [2] (setting [4]), the serum creatinine entry was “reduced” and the serum phosphorus result is “reduced”. In addition, in experiment [2] (week three), the “heart remodeling (organ weight)” value was “trend towards lesser heart and kidney remodeling”; the “kidney remodeling (organ weight)” value is “trend towards lesser heart and kidney remodeling”. In addition, in experiment [2] (setting [5]), the “heart calcification (tissue mineralization)” value was “trend towards reduced heart and kidney calcification”; the “kidney calcification (tissue mineralization)” value is “trend towards reduced heart and kidney calcification”.

For `CN1Cc2c(Cl)cc(Cl)cc2[C@@H](c2cccc(S(=O)(=O)NCCOCCOCCNC(=O)NCCCCNC(=O)NCCOCCOCCNS(=O)(=O)c3cccc([C@H]4CN(C)Cc5c(Cl)cc(Cl)cc54)c3)c2)C1` [Cpd 004], the “effect on fecal form” value in experiment [3] is reported as “no significant effect”.
